Assay results from ChEMBL document CHEMBL5608211, “Antibody-drug conjugates for targeted cancer therapy: Recent advances in potential payloads” (Eur J Med Chem, 2024).

How the values were obtained:
EMT6 = assay: Cytotoxicity against mouse EMT6 cells assessed as inhibition of cell growth incubated for 3 days by SRB assay; assay type: functional, cell-based; conditions: EMT6, 72 h
DEL = assay: Cytotoxicity against human DEL cells assessed as inhibition of cell growth incubated for 4 days by CellTiter-Glo luminescent assay; assay type: functional, cell-based; conditions: 96 h
SK-BR-3 = assay: Cytotoxicity against human SK-BR-3 cells incubated for 144 hrs by CellTiter-Glo luminescent assay; assay type: functional, cell-based; conditions: SK-BR-3, 144 h
CCRF-CEM = assay: Cytotoxicity against human CCRF-CEM cells assessed as cell growth inhibition by measuring lethal concentration by MTT assay; assay type: functional; conditions: read-out: LC50 (the source's name)
HL-60 = assay: Cytotoxicity against human HL-60 cells assessed as cell growth inhibition by measuring lethal concentration by MTT assay; assay type: functional; conditions: read-out: LC50 (the source's name)
MOLT-4 = assay: Cytotoxicity against human MOLT-4 cells assessed as cell growth inhibition by measuring lethal concentration by MTT assay; assay type: functional; conditions: read-out: LC50 (the source's name)
RPMI-8226 = assay: Cytotoxicity against human RPMI-8226 cells assessed as cell growth inhibition by measuring lethal concentration by MTT assay; assay type: functional; conditions: read-out: LC50 (the source's name)
A549 = assay: Cytotoxicity against human A549 cells assessed as cell growth inhibition by measuring lethal concentration by MTT assay; assay type: functional; conditions: read-out: LC50 (the source's name)
EKVX = assay: Cytotoxicity against human EKVX cells assessed as cell growth inhibition by measuring lethal concentration by MTT assay; assay type: functional; conditions: read-out: LC50 (the source's name)
HOP-62 = assay: Cytotoxicity against human HOP-62 cells assessed as cell growth inhibition by measuring lethal concentration by MTT assay; assay type: functional; conditions: read-out: LC50 (the source's name)
HOP-92 = assay: Cytotoxicity against human HOP-92 cells assessed as cell growth inhibition by measuring lethal concentration by MTT assay; assay type: functional; conditions: read-out: LC50 (the source's name)
NCI-H226 = assay: Cytotoxicity against human NCI-H226 cells assessed as cell growth inhibition by measuring lethal concentration by MTT assay; assay type: functional; conditions: read-out: LC50 (the source's name)
NCI-H23 = assay: Cytotoxicity against human NCI-H23 cells assessed as cell growth inhibition by measuring lethal concentration by MTT assay; assay type: functional; conditions: read-out: LC50 (the source's name)
[1] = Cytotoxicity against human […] cells assessed as cell growth inhibition by measuring lethal concentration by MTT assay; assay type: functional; conditions: read-out: LC50 (the source's name)
NCI-H460 = assay: Cytotoxicity against human NCI-H460 cells assessed as cell growth inhibition by measuring lethal concentration by MTT assay; assay type: functional; conditions: read-out: LC50 (the source's name)
NCI-H522 = assay: Cytotoxicity against human NCI-H522 cells assessed as cell growth inhibition by measuring lethal concentration by MTT assay; assay type: functional; conditions: read-out: LC50 (the source's name)
COLO 205 = assay: Cytotoxicity against human COLO 205 cells assessed as cell growth inhibition by measuring lethal concentration by MTT assay; assay type: functional; conditions: read-out: LC50 (the source's name)
HCC 2998 = assay: Cytotoxicity against human HCC 2998 cells assessed as cell growth inhibition by measuring lethal concentration by MTT assay; assay type: functional; conditions: read-out: LC50 (the source's name)
HCT-116 = assay: Cytotoxicity against human HCT-116 cells assessed as cell growth inhibition by measuring lethal concentration by MTT assay; assay type: functional; conditions: read-out: LC50 (the source's name)
HCT-15 = assay: Cytotoxicity against human HCT-15 cells assessed as cell growth inhibition by measuring lethal concentration by MTT assay; assay type: functional; conditions: read-out: LC50 (the source's name)
HT-29 = assay: Cytotoxicity against human HT-29 cells assessed as cell growth inhibition by measuring lethal concentration by MTT assay; assay type: functional; conditions: read-out: LC50 (the source's name)
KM12 = assay: Cytotoxicity against human KM12 cells assessed as cell growth inhibition by measuring lethal concentration by MTT assay; assay type: functional; conditions: read-out: LC50 (the source's name)
SW-620 = assay: Cytotoxicity against human SW620 cells assessed as cell growth inhibition by measuring lethal concentration by MTT assay; assay type: functional; conditions: read-out: LC50 (the source's name)
SF-268 = assay: Cytotoxicity against human SF-268 cells assessed as cell growth inhibition by measuring lethal concentration by MTT assay; assay type: functional; conditions: read-out: LC50 (the source's name)
SF-295 = assay: Cytotoxicity against human SF-295 cells assessed as cell growth inhibition by measuring lethal concentration by MTT assay; assay type: functional; conditions: read-out: LC50 (the source's name)
SF-539 = assay: Cytotoxicity against human SF-539 cells assessed as cell growth inhibition by measuring lethal concentration by MTT assay; assay type: functional; conditions: read-out: LC50 (the source's name)
SNB-19 = assay: Cytotoxicity against human SNB-19 cells assessed as cell growth inhibition by measuring lethal concentration by MTT assay; assay type: functional; conditions: read-out: LC50 (the source's name)
SNB-75 = assay: Cytotoxicity against human SNB-75 cells assessed as cell growth inhibition by measuring lethal concentration by MTT assay; assay type: functional; conditions: read-out: LC50 (the source's name)
U-251 = assay: Cytotoxicity against human U-251 cells assessed as cell growth inhibition by measuring lethal concentration by MTT assay; assay type: functional; conditions: read-out: LC50 (the source's name)
Malme-3M = assay: Cytotoxicity against human Malme-3M cells assessed as cell growth inhibition by measuring lethal concentration by MTT assay; assay type: functional; conditions: read-out: LC50 (the source's name)
M14 = assay: Cytotoxicity against human M14 cells assessed as cell growth inhibition by measuring lethal concentration by MTT assay; assay type: functional; conditions: read-out: LC50 (the source's name)
SK-MEL-2 = assay: Cytotoxicity against human SK-MEL-2 cells assessed as cell growth inhibition by measuring lethal concentration by MTT assay; assay type: functional; conditions: read-out: LC50 (the source's name)
SK-MEL-28 = assay: Cytotoxicity against human SK-MEL-28 cells assessed as cell growth inhibition by measuring lethal concentration by MTT assay; assay type: functional; conditions: read-out: LC50 (the source's name)
SK-MEL-5 = assay: Cytotoxicity against human SK-MEL-5 cells assessed as cell growth inhibition by measuring lethal concentration by MTT assay; assay type: functional; conditions: read-out: LC50 (the source's name)
UACC-257 = assay: Cytotoxicity against human UACC-257 cells assessed as cell growth inhibition by measuring lethal concentration by MTT assay; assay type: functional; conditions: read-out: LC50 (the source's name)
UACC-62 = assay: Cytotoxicity against human UACC-62 cells assessed as cell growth inhibition by measuring lethal concentration by MTT assay; assay type: functional; conditions: read-out: LC50 (the source's name)
IGROV-1 = assay: Cytotoxicity against human IGROV-1 cells assessed as cell growth inhibition by measuring lethal concentration by MTT assay; assay type: functional; conditions: read-out: LC50 (the source's name)
OVCAR-3 = assay: Cytotoxicity against human OVCAR-3 cells assessed as cell growth inhibition by measuring lethal concentration by MTT assay; assay type: functional; conditions: read-out: LC50 (the source's name)
OVCAR-4 = assay: Cytotoxicity against human OVCAR-4 cells assessed as cell growth inhibition by measuring lethal concentration by MTT assay; assay type: functional; conditions: read-out: LC50 (the source's name)
OVCAR-5 = assay: Cytotoxicity against human OVCAR-5 cells assessed as cell growth inhibition by measuring lethal concentration by MTT assay; assay type: functional; conditions: read-out: LC50 (the source's name)
OVCAR-8 = assay: Cytotoxicity against human OVCAR-8 cells assessed as cell growth inhibition by measuring lethal concentration by MTT assay; assay type: functional; conditions: read-out: LC50 (the source's name)
SK-OV-3 = assay: Cytotoxicity against human SK-OV-3 cells assessed as cell growth inhibition by measuring lethal concentration by MTT assay; assay type: functional; conditions: read-out: LC50 (the source's name)
786-0 = assay: Cytotoxicity against human 786-0 cells assessed as cell growth inhibition by measuring lethal concentration by MTT assay; assay type: functional; conditions: read-out: LC50 (the source's name)
A498 = assay: Cytotoxicity against human A498 cells assessed as cell growth inhibition by measuring lethal concentration by MTT assay; assay type: functional; conditions: read-out: LC50 (the source's name)
ACHN = assay: Cytotoxicity against human ACHN cells assessed as cell growth inhibition by measuring lethal concentration by MTT assay; assay type: functional; conditions: read-out: LC50 (the source's name)
CAKI-1 = assay: Cytotoxicity against human CAKI-1 cells assessed as cell growth inhibition by measuring lethal concentration by MTT assay; assay type: functional; conditions: read-out: LC50 (the source's name)
SN12C = assay: Cytotoxicity against human SN12C cells assessed as cell growth inhibition by measuring lethal concentration by MTT assay; assay type: functional; conditions: read-out: LC50 (the source's name)
TK-10 = assay: Cytotoxicity against human TK-10 cells assessed as cell growth inhibition by measuring lethal concentration by MTT assay; assay type: functional; conditions: read-out: LC50 (the source's name)
UO-31 = assay: Cytotoxicity against human UO-31 cells assessed as cell growth inhibition by measuring lethal concentration by MTT assay; assay type: functional; conditions: read-out: LC50 (the source's name)
PC-3 = assay: Cytotoxicity against human PC-3 cells assessed as cell growth inhibition by measuring lethal concentration by MTT assay; assay type: functional; conditions: read-out: LC50 (the source's name)
DU-145 = assay: Cytotoxicity against human DU-145 cells assessed as cell growth inhibition by measuring lethal concentration by MTT assay; assay type: functional; conditions: read-out: LC50 (the source's name)
NCI/ADR-RES = assay: Cytotoxicity against human MCF7ADR cells assessed as cell growth inhibition by measuring lethal concentration by MTT assay; assay type: functional; conditions: read-out: LC50 (the source's name)
Hs-578T = assay: Cytotoxicity against human Hs-578T cells assessed as cell growth inhibition by measuring lethal concentration by MTT assay; assay type: functional; conditions: read-out: LC50 (the source's name)
MDA-MB-435 = assay: Cytotoxicity against human MDA-MB-435 cells assessed as cell growth inhibition by measuring lethal concentration by MTT assay; assay type: functional; conditions: read-out: LC50 (the source's name)
MDA-N = assay: Cytotoxicity against human MDA-N cells assessed as cell growth inhibition by measuring lethal concentration by MTT assay; assay type: functional; conditions: read-out: LC50 (the source's name)
BT-549 = assay: Cytotoxicity against human BT-549 cells assessed as cell growth inhibition by measuring lethal concentration by MTT assay; assay type: functional; conditions: read-out: LC50 (the source's name)
T47D = assay: Cytotoxicity against human T47D cells assessed as cell growth inhibition by measuring lethal concentration by MTT assay; assay type: functional; conditions: read-out: LC50 (the source's name)

With `COc1cc2c(cc1OCCCCCC(=O)N1C[C@H](CCl)c3c1cc(O)c1ccccc31)N=C[C@@H]1CCCN1C2=O` the IC50 (EMT6) was 0.0078 nM.

Molecule `CC[C@@]1(O)C(=O)OCc2c1cc1n(c2=O)Cc2c-1nc1cc3c(cc1c2CN)OCO3` has an IC50 (DEL) of 0.7 nM.

With `Cc1cccc2c(O)cc3c(c12)[C@H](CCl)CN3C(=O)c1cn2cc(NC(=O)c3ccc(O)cc3)ccc2n1` the IC50 (SK-BR-3) was 0.09 nM.

In the case of `C=C1C[C@H]2C=Nc3cc(OCCCCCCCCCCOc4cc5c(cc4OC)C(=O)N4CC(=C)C[C@H]4C=N5)c(OC)cc3C(=O)N2C1`, the CC50 (CCRF-CEM) is reported as 0.14 nM, the CC50 (HL-60) is reported as 0.14 nM and the CC50 (MOLT-4) is reported as 0.14 nM. The CC50 (RPMI-8226) was 0.14 nM, the CC50 (A549) was 0.14 nM and the CC50 (EKVX) was 0.14 nM. For the same molecule, the CC50 (HOP-62) was 0.14 nM, the CC50 (HOP-92) was 0.14 nM and the CC50 (NCI-H226) was 0.14 nM. The CC50 (NCI-H23) was 0.14 nM, the CC50 [1] was 0.14 nM and the CC50 (NCI-H460) was 0.14 nM. It also gave a CC50 (NCI-H522) of 0.14 nM, a CC50 (COLO 205) of 0.14 nM and a CC50 (HCC 2998) of 0.14 nM. The CC50 (HCT-116) was 0.14 nM, the CC50 (HCT-15) was 0.14 nM and the CC50 (HT-29) was 0.14 nM. For the same molecule, the CC50 (KM12) was 0.14 nM, the CC50 (SW-620) was 0.14 nM and the CC50 (SF-268) was 0.14 nM. For the same molecule, the CC50 (SF-295) was 0.14 nM, the CC50 (SF-539) was 0.14 nM and the CC50 (SNB-19) was 0.14 nM. The CC50 (SNB-75) was 0.14 nM, the CC50 (U-251) was 0.14 nM and the CC50 (Malme-3M) was 0.14 nM. For the same molecule, the CC50 (M14) was 0.14 nM, the CC50 (SK-MEL-2) was 0.14 nM and the CC50 (SK-MEL-28) was 0.14 nM. It also gave a CC50 (SK-MEL-5) of 0.14 nM, a CC50 (UACC-257) of 0.14 nM and a CC50 (UACC-62) of 0.14 nM. It also gave a CC50 (IGROV-1) of 0.14 nM, a CC50 (OVCAR-3) of 0.14 nM and a CC50 (OVCAR-4) of 0.14 nM. For the same molecule, the CC50 (OVCAR-5) was 0.14 nM, the CC50 (OVCAR-8) was 0.14 nM and the CC50 (SK-OV-3) was 0.14 nM. It also gave a CC50 (786-0) of 0.14 nM, a CC50 (A498) of 0.14 nM and a CC50 (ACHN) of 0.14 nM. The CC50 (CAKI-1) was 0.14 nM, the CC50 (SN12C) was 0.14 nM and the CC50 (TK-10) was 0.14 nM. For the same molecule, the CC50 (UO-31) was 0.14 nM, the CC50 (PC-3) was 0.14 nM and the CC50 (DU-145) was 0.14 nM. It also gave a CC50 (NCI/ADR-RES) of 0.14 nM, a CC50 (Hs-578T) of 0.14 nM and a CC50 (MDA-MB-435) of 0.14 nM. The CC50 (MDA-N) was 0.14 nM, the CC50 (BT-549) was 0.14 nM and the CC50 (T47D) was 0.14 nM.
